Like-named read-outs stand apart in the source and are kept apart here. Numbered stars: 1 amine (or outer) side, 2 acyl side, 3 side chain; on linkers, the order of the positions; unused ones are H or OH. Bridge positions count the residues as written; N and C are the ends. Square brackets hold non-standard residues; d marks the D form. Peptide text beside a SMILES is read from it. I, II: the chains in the order shown. Actinocin(9to1) = Cc1c2oc3c(C)ccc(C(=O)[*:1])c3nc-2c(C(=O)[*:2])c(N)c1=O; NMeV = CN[C@H](C(=O)O)C(C)C; Sar = CNCC(=O)O
Key:
[1] = Hemolysis assay (hemoglobin release; alone and checkerboard combination); details: sheep, 6% erythrocyte suspension from defibrinated sheep blood
Method: (§3) Assessing the possibility of drug-induced hemolysis, the hemolytic activity was evaluated in vitro from defibrinated sheep blood, commercially obtained (Laborclin; lot n° 51109038). Erythrocyte suspension at 6% was prepared by centrifugation in 2,000 × g, for 10 min and placed in 96-wells with the different concentrations of each compound. As positive control, it used Triton X (Synth®) surfactant. After 2 h at 37°C, all samples were centrifuged for 3 min, and the supernatant was harvested to verify the hemoglobin release by the absorbance measured in 540 nm.

[2] = tested on: Leishmania amazonensis axenic amastigote; assay: In vitro activity against L. amazonensis axenic amastigotes (growth inhibition by cell counting; alone and checkerboard combination); format: cell-based; details: isolated drug, 72 h, 32°C, ± SD
Method: Axenic amastigote forms were obtained from L. amazonensis promastigotes. For this, promastigote forms in phase log of growth were cultivated in Warren’s medium, pH 7.2, supplemented with 20% FCS and incubated at 25°C, during 48 h. Next, the parasites were maintained at 30°C, for 24 h, and at 32°C until differentiation in amastigote forms. Axenic amastigotes were maintained in Schneider insect’s medium (Sigma–Aldrich®), pH 4.6, supplemented with 20% of FCS, at 32°C ([Ueda-Nakamura et al., 2001]).

[3] = Cytotoxicity on J774.A1 macrophages (MTT; alone and checkerboard combination); format: cell-based, Murine; details: mouse, J774.A1 macrophages, pH 7.6, isolated drug, ± SD, read-out: CC50 J774.A1 Macrophage
Text: (§1) As positive control, it used Triton X (Synth®) surfactant. […] (2010)].

[4] = tested on: L. amazonensis promastigote; assay: Phosphatidylserine exposure (Annexin-V-FITC / PI), flow cytometry; format: cell-based, Leishmania amazonensis; details: 24 h; miltefosine 173.32 μM; BZTS 13.86 μM + miltefosine 37.78 μM; CCCP 100 μM
Method: For these studies, the treated protozoa were incubated during 24 h, at 25°C. […] At the end of 24 h, the samples were washed in 0.01 M PBS and resuspended in 100 μL of binding buffer (140 mM NaCl; 5 mM CaCl2; 10 mM HEPES-Na; pH 7.4), followed by the addition of 5 μL of the Annexin-V-FITC conjugated (Molecular Probes®). After 15 min of incubation, 400 μL of binding buffer and 50 μL of PI were added. […] Data acquisition (10,000 events) and analysis were carried out on flow cytometer BD FACSCalibur, equipped with CellQuest Pro software. Necrosis processes were identified by PI fluorescence in the cells while apoptotic cells were labeled with Annexin-V-FITC, regardless of the PI behavior.

[5] = tested on: L. amazonensis promastigote; assay: Volume analysis of promastigote forms, flow cytometry (FSC-H); format: cell-based, Leishmania amazonensis; details: 24 h; miltefosine 173.32 μM; BZTS + miltefosine 13.86 μM + 37.78 μM; actinomycin D positive control
Method: For these studies, the treated protozoa were incubated during 24 h, at 25°C.
After to treat 1 × 10^7 promastigote forms with […] actinomycin D (positive control – Sigma–Aldrich®), isolated miltefosine and BZTS with miltefosine, the samples were washed two times with PBS 0.01 M and incubated. Cell volume was measured on BD FACSCalibur flow cytometer and 10,000 events were analyzed by CellQuest Pro software.

[6] = tested on: L. amazonensis promastigote; assay: Cell membrane integrity by propidium iodide, flow cytometry; format: cell-based, Leishmania amazonensis; details: 24 h, 25°C; miltefosine 173.32 μM; BZTS + miltefosine 13.86 μM + 37.78 μM; digitonin 40 μM
Method: For these studies, the treated protozoa were incubated during 24 h, at 25°C. L. amazonensis promastigote cells were prepared according item 2.7. After incubation, the samples were washed in PBS 0.01 M and incubated with 50 μL of propidium iodide (PI – Sigma–Aldrich®) 2 mg/mL at 25°C, for 5 min. Membrane rupture allows the entrance of PI and its binding to cell DNA. Cell membrane integrity was measured according PI fluorescence, on BD FACSCalibur flow cytometer, in which 10,000 events were evaluated by CellQuest Pro software. Digitonin saponin 40 μM (Sigma–Aldrich®) was used as positive control and the fluorescence measurement were compared with NC fluorescence.

[7] = tested on: L. amazonensis promastigote; assay: Scanning electron microscopy of treated promastigotes; format: cell-based, Leishmania amazonensis; details: IC50 and IC90, 72 h, 25°C
Method: (§2) Scanning electron microscopy was carried out to analyze the morphologic alterations on cell surface topography. […] After incubation for 72 h, at 25°C, the samples were fixed in 2.5% glutaraldehyde in 0.1 M sodium cacodylate buffer (Electron Microscopy Sciences – EMS®) for 24 h. It used poly-L-lysine (Electron Microscopy Sciences – EMS®) to promote the fixed parasites adhesion over coverslips, which were dehydrated with increasing concentration of ethanol (30, 40, 50, 60, 70, 80, 90, 95, 100% – Sigma–Aldrich®). The samples were critical-point-dried (Baltec SCD-030) in CO2 to remove any water trace, placed on appropriate stub to coat with gold alloy. The micrographs were obtained by analysis in Shimadzu SS-550 scanning electron microscope (SEM).

[8] = tested on: L. amazonensis promastigote; assay: Transmission electron microscopy of treated promastigotes; format: cell-based, Leishmania amazonensis; details: IC50 and IC90, 72 h, 25°C
Method: In order to evaluate the ultrastructure changes in the treated parasites, promastigote forms were treated and fixed according described above. These samples were post-fixed with 1% OsO4 (Electron Microscopy Sciences – EMS®) and 0.8% potassium ferrocyanide (Electron Microscopy Sciences – EMS®), in the dark, during 60 min, at room temperature. This procedure increases the contrast to link with lipids. The samples were washed in 0.1 M sodium cacodylate buffer and dehydrated in increased concentration of acetone (50, 70, 80, 90, 95, 100% – Sigma–Aldrich®). All acetone content was replaced by cell diffusion for EPON^TM epoxy resin, gradually, and after 48 h, at 60°C, the resin was polymerized. Nanometric cuts (60–70 nm) were obtained on ultramicrotome (Power Tome X RMC Products), contrasted with 5% uranyl acetate (Electron Microscopy Sciences – EMS®) and 2% lead citrate (Electron Microscopy Sciences – EMS®). Finally, the samples were analyzed by transmission electron microscope (TEM) JEOL – JEM 1400.

[9] = tested on: L. amazonensis promastigote; assay: Mitochondrial transmembrane potential (rhodamine 123), flow cytometry; format: cell-based, Leishmania amazonensis; details: 24 h; 2 × IC90
Method: For these studies, the treated protozoa were incubated during 24 h, at 25°C. Parasites were prepared according 2.7.1 item, including positive control. […] At the same way described above, 10,000 events were evaluated on flow cytometer BD FACSCalibur and the data were analyzed by CellQuest Pro software.

[10] = tested on: peritoneal macrophages infected with L. amazonensis; assay: Nitric oxide measurement (DAF-FM DA) on infected macrophages; format: cell-based, BALB/c mice; details: IC50 and IC90, 48 h, 34°C
Method: Furthermore, the activity of these drugs against L. amazonensis intracellular amastigotes was also evaluated. For this, intraperitoneal macrophages were harvested from the males BALB/c mice, by injection of cold phosphate-saline buffer (PBS) plus FCS 3% inner the peritoneal cavity. After centrifugation, a suspension of 5 × 10^5 macrophages in RPMI was placed on glass coverslips in 24-wells microplate and incubated during 2 h, at 37°C and 5% CO2 atmosphere, for cellular adhesion. After this period, the wells were washed and the macrophages were infected with L. amazonensis promastigotes in stationary phase (5–6 days) at a ratio of 7 parasites/1 mammalian cell, during 4 h, at 34°C and 5% CO2 tension and then, the tested compounds were added during 48 h ([Kaplum et al., 2016]). […] Then, a total of 200 macrophages were counted under light microscope, distinguishing infected cells and amastigote parasites. Thereby, the survival index (SI = infected cells percentage × amastigote average per infected macrophage) was calculated considering 100% of survival for the untreated negative control (NC). […]
Promastigote forms and infected macrophages were incubated at 25°C for 72 h and 34°C for 48 h, respectively. […] Fluorescence was measured on fluorometer Perkin-Elmer Victor X3, at λex = 495 nm and λem = 515 nm.

[11] = tested on: Leishmania amazonensis promastigote; assay: In vitro activity against L. amazonensis promastigotes (growth inhibition by cell counting; drugs alone and in checkerboard combination); format: cell-based; details: isolated drug; for IC50: 72 h, 25°C, ± SD; for IC90: promastigotes
Method: Leishmania amazonensis MHOM/BR/75/Josefa strain was isolated from a human case of cutaneous leishmaniasis by Dr. Cesar A. Cuba, at University of Brasilia, Brazil ([Saraiva et al., 1983]; [Cuba et al., 1985]). These promastigote parasites were maintained in Warren’s medium, consisting of brain heart infusion (Gibco®), hemin (Sigma–Aldrich®), and folic acid (Sigma–Aldrich®), pH 7.2, supplemented with 10% of fetal calf serum (FCS – Invitrogen®) and incubated at 25°C.
The same procedure was carried out with axenic amastigote forms, using 12-wells microplate. After incubation during 72 h, at 25 and 32°C for promastigote and axenic amastigote forms, respectively, viable cells were counted with hemocytometer supporting.
Briefly, promastigotes, axenic and intracellular amastigotes were prepared even as previously described (see the section In vitro Activity against L. amazonensis) as well the macrophages and erythrocytes, according to the section Cytotoxicity and Hemolysis Assays. […] Thus, the compounds were singly evaluated in the first row and column and the checkerboard model supported the drug combination in the other wells. Next, the parasites were added and, after incubation, as described above, it was possible to determine the IC50 for the association. Finding the behavior of each association, the CI was calculated from the formula:
CI=(IC50 compound A associated/IC50 compound A alone)+(IC50 compound B associated/IC50 compound B alone)
CI values lower, equal and greater than one indicate, respectively, synergistic, additive and antagonistic profile of association tested, according established by [Chou and Talalay (1984)] and [Chou (2010)].
as §2

non-infected macrophages = assay: Nitric oxide measurement (DAF-FM DA) on non-infected macrophages; format: cell-based; details: IC50 and IC90
[12] = tested on: L. amazonensis promastigote; assay: Detection of lipid droplets using Nile Red dye (fluorometry); format: cell-based, Leishmania amazonensis
Method: Parasites were prepared and standardize in accordance to item 2.8.1. Next, 5 μL of Nile Red (Sigma–Aldrich®) 1 mg/mL methanol were added to treated parasites and incubated during 30 min, at dark and room temperature. Fluorescence was measured on Perkin-Elmer Victor X3 fluorometer, at λex = 485 nm e λem = 535 ([Greenspan et al., 1985]). Nile Red is a phenoxazone dye that fluoresces intensely at yellow–gold color in the presence of triacylglycerols, cholesterol, or cholesterol esters, considered neutral lipids ([Fowler and Greenspan, 1985]).

[13] = tested on: L. amazonensis intracellular amastigotes; assay: Activity against L. amazonensis intracellular amastigotes in peritoneal macrophages (survival index; alone and checkerboard combination); format: cell-based, Leishmania amazonensis; details: isolated drug, 48 h, ± SD, read-out: IC50 Intracellular amastigote
Method: Furthermore, the activity of these drugs against L. amazonensis intracellular amastigotes was also evaluated. For this, intraperitoneal macrophages were harvested from the males BALB/c mice, by injection of cold phosphate-saline buffer (PBS) plus FCS 3% inner the peritoneal cavity. After centrifugation, a suspension of 5 × 10^5 macrophages in RPMI was placed on glass coverslips in 24-wells microplate and incubated during 2 h, at 37°C and 5% CO2 atmosphere, for cellular adhesion. After this period, the wells were washed and the macrophages were infected with L. amazonensis promastigotes in stationary phase (5–6 days) at a ratio of 7 parasites/1 mammalian cell, during 4 h, at 34°C and 5% CO2 tension and then, the tested compounds were added during 48 h ([Kaplum et al., 2016]). At the end of this period, the glass coverslips were subject to fixation with methanol during 10 min and stained with 10% Giemsa stain (GIBCO KaryoMax® Giemsa), for 40 min. Then, a total of 200 macrophages were counted under light microscope, distinguishing infected cells and amastigote parasites. Thereby, the survival index (SI = infected cells percentage × amastigote average per infected macrophage) was calculated considering 100% of survival for the untreated negative control (NC). It was subsequently possible to carry out the comparison with samples treated for IC50 calculation purposes.

[14] = tested on: L. amazonensis promastigote; parameters: method as in Britta et al. (2014); details: ref Britta et al. (2014); cited from earlier work
erythrocytes = assay: Hemolysis assay (hemoglobin release; alone and checkerboard combination); details: read-out: CC50 Erythrocytes; isolated drug; defibrinated sheep blood, 6% erythrocyte suspension, 2 h, 37°C; ± SD
Method: as §3

J774.A1 macrophages = assay: Cytotoxicity on J774.A1 macrophages (MTT; alone and checkerboard combination); format: cell-based, Murine; details: isolated drug, 48 h, ± SD, read-out: CC50 J774.A1 Macrophage
Text: as §1

[15] = tested on: L. amazonensis promastigote; parameters: method as in Britta et al. (2014); details: ref Britta et al. (2014); cited from earlier work; remark: listed apart in the source

C[C@@H]1[C@H](O)[C@@H](C)/C=C/C=C/C=C/C=C/C=C/C=C/C=C/[C@H](O[C@@H]2O[C@H](C)[C@@H](O)[C@H](N)[C@@H]2O)C[C@@H]2O[C@](O)(C[C@@H](O)C[C@@H](O)[C@H](O)CC[C@@H](O)C[C@@H](O)CC(=O)O[C@H]1C)C[C@H](O)[C@H]2C(=O)O [Amphotericin B]
CC50 at 2 h [1]: 51.8 ± 4.34 µM | IC50 ([2]; Leishmania amazonensis): 0.43 ± 0.19 µM | CC50 at 48 h [3]: 3.74 ± 0.59 µM

N#CC(C#N)=NNc1cccc(Cl)c1 [CCCP, carbonyl cyanide 3-chlorophenylhydrazone]
cells in late apoptotic process, Annexin-V-FITC and PI fluorescence (upper right quadrant) [4]: 39.98% | cells with only Annexin-V-FITC label (lower right quadrant) [4]: 5.25%

Cc1c2oc3c(C)ccc(C(=O)N[C@@H]4C(=O)N[C@H](C(C)C)C(=O)N5CCC[C@H]5C(=O)N(C)CC(=O)N(C)[C@@H](C(C)C)C(=O)O[C@@H]4C)c3nc-2c(C(=O)N[C@@H]2C(=O)N[C@H](C(C)C)C(=O)N3CCC[C@H]3C(=O)N(C)CC(=O)N(C)[C@@H](C(C)C)C(=O)O[C@@H]2C)c(N)c1=O [Actinomycin D] (I: T[dV]P[Sar][NMeV] / II: T[dV]P[Sar][NMeV]; ester I:1-I:C, II:1-II:C; linker I:N-II:N via Actinocin(9to1))
cells with volume reduction compared to untreated parasites [5]: 51.95%

CCCCCCCCCCCCCCCCOP(=O)([O-])OCC[N+](C)(C)C [Miltefosine, hexadecyl-phosphocholine]
CC50 at 2 h [1]: 21.4 ± 0.75 µM | PI fluorescence (cells that lost plasma membrane integrity) [6]: 81.18% | Morphologic alterations by SEM [7]: changes on surface cell and reduction of the flagellum length | IC50 ([2]; Leishmania amazonensis): 0.79 ± 0.48 µM | Ultrastructure changes by TEM [8]: Disruption of cytoplasmic membrane | CC50 at 48 h [3]: 55.1 ± 1.97 µM | Rh 123 fluorescence intensity (in words) [9]: strong decrease | cells with volume reduction compared to untreated parasites [5]: 10.45% | NO production, infected macrophages [10]: NO production increased from low concentration | IC50 ([11]; Leishmania amazonensis): 20.8 ± 0.25 µM | IC90 ([11]; Leishmania amazonensis): 86.7 µM | NO production, non-infected macrophages (non-infected macrophages): induced the NO production | Lipid droplets (Nile Red fluorescence) vs NC ([12]; treated at IC90, 24 h): statistical significance | IC50 ([13]; Leishmania amazonensis, Peritoneal macrophage): 1.82 ± 0.2 µM

4-nitro benzaldehyde thiosemicarbazone derived from S-(-)-limonene [BZTS]
cell volume after BZTS treatment [14]: cell volume decrease | CC50 (erythrocytes): > 500 µM | IC50 [2]: 8.04 ± 0.37 µM | Ultrastructure changes by TEM [8]: mitochondrion alterations, like swelling and concentric membranes inner mitochondria | CC50 (J774.A1 macrophages): 87.5 ± 9.07 µM | Annexin-V-FITC after BZTS treatment [15]: positive results | NO production, infected macrophages [10]: only in higher concentrations | IC50 [11]: 4.16 ± 0.78 µM | IC90 [11]: 13.9 µM | NO production, non-infected macrophages (non-infected macrophages): induced the NO production | Lipid droplets (Nile Red fluorescence) vs NC ([12]; treated at IC50, 24 h): statistical significance | Lipid droplets (Nile Red fluorescence) vs NC ([12]; treated at IC90, 24 h): statistical significance | IC50 [13]: 6.99 ± 1.22 µM
